These are literature values, as cited in patent publication US20250331549A1, “AEROSOL-GENERATING ARTICLE WITH AVERSIVE AGENT” (PHILIP MORRIS PRODUCTS S.A., priority 2022, published 2025).

Where a name gives a salt, the structure may show the parent alone. Read-outs that look alike come from different tables or passages of the source. Some results are limits rather than exact numbers.

Where [1] appears, read: quinine hydrochloride value is the set reference, denatonium benzoate value is estimated.
Where [2] appears, read: reciprocal of the dilution that still has a bitter taste, known bittering agents, Table 1.

Turning to `CC[N+](CC)(CC(=O)Nc1c(C)cccc1C)Cc1ccccc1` [Denatonium benzoate, denatonium benzoate], the Bitterness value result was “over 100,000,000” under setting [1] and >100,000,000 under setting [2].
For the compound amarogentin, the Bitterness value under setting [2] is 58,000,000.
As to `COC1=C[C@@H](C)[C@@H]2C[C@H]3OC(=O)C[C@H]4C(C)=C(OC)C(=O)[C@H]([C@@]2(C)C1=O)[C@@]34C` [Quassin, quassin], under setting [2], the Bitterness value is 13,000,000.
`C=C[C@H]1C[N@@]2CC[C@H]1C[C@H]2[C@H](O)c1ccnc2ccc(OC)cc12` [Quinine hydrochloride, quinine hydrochloride, reference compound]: the Bitterness value reads like this: under setting [1], 200,000; under setting [2], 200,000.
On to `CC1=C[C@H]2[C@H]3[C@H](C(C)=C4[C@H]5OC(=O)[C@@H](C)[C@@H]5CC[C@](C)(O)[C@@H]43)[C@@]13[C@@H]2[C@@](C)(O)CC[C@H]1[C@H](C)C(=O)O[C@@H]13` [Absinthin, absinthin], for which, under setting [2], the Bitterness value is given as 3,000,000.
For `C[C@@]12C[C@@H](c3ccoc3)OC(=O)[C@@H]1CC[C@]1(C)[C@H]2[C@@H]2C=C[C@@]1(O)C(=O)O2` [Columbin, columbin], under setting [2], the Bitterness value was 60,000,000.
